For 16 molecules, TGI results are on record in PubChem BioAssay (NCI).

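Interpolation was linear, between the two tested concentrations surrounding the appropriate level; five concentrations were tested over 48 hours in 96-well plates. TGI denotes the concentration required for complete inhibition of growth.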

Test systems include UACC-62 melanoma; HOP-92 NSCLC; EKVX NSCLC; M14 melanoma; SK-MEL-28 melanoma; MDA-N; SNB-75 CNS; MALME-3M melanoma; SF-539 CNS; IGROV1 ovarian.
What all share (assay): growth of human tumour cells (NCI), 48 h

Turning to `N#Cc1c(N2CCCC2)ncn(Cc2ccccc2)c1=O`, the TGI in the assay with UACC-62 melanoma, in the assay with HOP-92 NSCLC, in the assay with EKVX NSCLC, in the assay with M14 melanoma, in the assay with SK-MEL-28 melanoma and with MDA-N was above 100 µM each time. Besides, the TGI in the assay on SNB-75 CNS, in the assay with MALME-3M melanoma, in the assay on SF-539 CNS and in the assay on IGROV1 ovarian was above 100 µM each time.

With `C(=C\c1ccccc1)/C=N/c1nc2cc3sc(/N=C/C=C/c4ccccc4)nc3cc2s1`, the TGI with UACC-62 melanoma, in the assay on HOP-92 NSCLC, in the assay with EKVX NSCLC, in the assay with M14 melanoma, in the assay with SK-MEL-28 melanoma and with MDA-N was above 100 µM in each case. Further, the TGI in the assay on SNB-75 CNS, in the assay on MALME-3M melanoma, in the assay with SF-539 CNS and in the assay with IGROV1 ovarian was above 100 µM each time.

With `O=C1C(Br)=CC2(C=C1Br)CCNC1=C2C(=O)c2cccnc2C1=O`, the TGI in the assay with UACC-62 melanoma was determined as 12.9 µM; in the assay on HOP-92 NSCLC it was 30.2 µM; in the assay with EKVX NSCLC, 28.5 µM; with M14 melanoma it was 21.3 µM; with SK-MEL-28 melanoma, 29.3 µM; with MDA-N it was 3.46 µM. Besides, the TGI with SNB-75 CNS was determined as 27.1 µM; in the assay with MALME-3M melanoma, 21.5 µM; with SF-539 CNS it was 20.9 µM; in the assay on IGROV1 ovarian, 21.8 µM.

Consider `COc1cccc(N(CN2CC=CC2=O)C(C)=O)c1`, for which the TGI in the assay on UACC-62 melanoma, with HOP-92 NSCLC, with EKVX NSCLC, with M14 melanoma, in the assay on SK-MEL-28 melanoma and with MDA-N was above 100 µM in each case. Moreover, the TGI in the assay on SNB-75 CNS, in the assay with MALME-3M melanoma, in the assay on SF-539 CNS and in the assay on IGROV1 ovarian was above 100 µM each time.

Regarding `Nc1ccccc1N/C=C\C(=O)C(Cl)(Cl)Cl`, the TGI in the assay on UACC-62 melanoma amounted to 35.9 µM; in the assay on HOP-92 NSCLC, 47.8 µM; with EKVX NSCLC it was 30.5 µM; with M14 melanoma, 31.8 µM; with SK-MEL-28 melanoma, 42.8 µM; in the assay on MDA-N, 30.9 µM. Moreover, the TGI was 72.2 µM in the assay on SNB-75 CNS, above 100 µM in the assay on MALME-3M melanoma, above 100 µM in the assay on SF-539 CNS and 40.7 µM with IGROV1 ovarian.

In the case of `NC(=S)Nc1[nH]c(=S)nc2c1SC1=N/C(=C\c3ccco3)C(=O)N12`, the TGI with UACC-62 melanoma, in the assay on HOP-92 NSCLC, in the assay on EKVX NSCLC, in the assay on M14 melanoma, in the assay on SK-MEL-28 melanoma and in the assay with MDA-N was above 100 µM in each case. Also, the TGI in the assay with SNB-75 CNS is above 100 µM; with MALME-3M melanoma it was above 83.3 µM; in the assay on SF-539 CNS, above 100 µM; with IGROV1 ovarian, above 100 µM.

Regarding `COc1cc(CC2c3cc(OC)c(OC)cc3CCN2C)c(Oc2cc3c(cc2OC)-c2c(O)c(OC)cc4c2C(C3)N(C)CC4)cc1OC` (stereo not given), the TGI in the assay with UACC-62 melanoma came to 40.1 µM; in the assay with HOP-92 NSCLC, 32.6 µM; in the assay with EKVX NSCLC, 53.1 µM; in the assay on M14 melanoma, 22.8 µM; in the assay with SK-MEL-28 melanoma, 63.2 µM; with MDA-N it was 36.8 µM. Further, the TGI in the assay on SNB-75 CNS turned out to be 31.3 µM; with MALME-3M melanoma, 53.8 µM; in the assay with SF-539 CNS it was 30.3 µM; with IGROV1 ovarian, 45.1 µM.

Consider `Cc1sc(/N=C/c2c[nH]c3ccccc23)c(C#N)c1C`, for which the TGI was 78.8 µM in the assay with UACC-62 melanoma; above 100 µM in the assay with HOP-92 NSCLC; above 100 µM in the assay with EKVX NSCLC; above 100 µM in the assay with M14 melanoma; above 100 µM in the assay with SK-MEL-28 melanoma; above 100 µM in the assay on MDA-N. For the same molecule, the TGI with SNB-75 CNS, with MALME-3M melanoma, in the assay with SF-539 CNS and in the assay with IGROV1 ovarian was above 100 µM each time.

Take `CNC(=O)c1cc(NC(=O)N(CCC#N)CCN(C(=O)N[C@@H](Cc2ccccc2)C(=O)N[C@@H](CC(C)C)C(=O)NC)c2ccccc2)ccc1OC`: the TGI is above 55.4 µM in the assay with UACC-62 melanoma; 71.7 µM with HOP-92 NSCLC; above 100 µM in the assay on EKVX NSCLC; above 100 µM in the assay on M14 melanoma; above 61.9 µM in the assay on SK-MEL-28 melanoma; above 100 µM in the assay on MDA-N. Besides, the TGI was above 100 µM in the assay with SNB-75 CNS, 38.5 µM in the assay with MALME-3M melanoma, above 66.3 µM with SF-539 CNS and above 73.2 µM with IGROV1 ovarian.

As for `O=C(OCc1ccccc1)C1(N2CN(C3(C(=O)OCc4ccccc4)CCCC3)CN(C3(C(=O)OCc4ccccc4)CCCC3)C2)CCCC1`, the TGI in the assay with UACC-62 melanoma, in the assay on HOP-92 NSCLC, in the assay with EKVX NSCLC, with M14 melanoma, with SK-MEL-28 melanoma and with MDA-N was above 10 µM each time. Further, the TGI in the assay with SNB-75 CNS, with MALME-3M melanoma, in the assay on SF-539 CNS and in the assay on IGROV1 ovarian was above 10 µM in each case.

In the case of `CC(C)(C)C1(COC(=O)c2ccc(N)cc2)COC1`, the TGI in the assay with UACC-62 melanoma, in the assay with HOP-92 NSCLC, with EKVX NSCLC, in the assay with M14 melanoma, in the assay on SK-MEL-28 melanoma and with MDA-N was above 100 µM throughout. For the same molecule, the TGI with SNB-75 CNS, with MALME-3M melanoma, in the assay with SF-539 CNS and with IGROV1 ovarian was above 100 µM throughout.

Turning to `CSC1=C(C#N)C(=O)N(c2ccc(C)cc2)C(=S)C1C#N` (stereo not given), the TGI in the assay with UACC-62 melanoma, in the assay with HOP-92 NSCLC, in the assay with EKVX NSCLC, with M14 melanoma, in the assay on SK-MEL-28 melanoma and in the assay with MDA-N was above 100 µM throughout. For the same molecule, the TGI in the assay with SNB-75 CNS, with MALME-3M melanoma, in the assay with SF-539 CNS and in the assay on IGROV1 ovarian was above 100 µM throughout.

As to `CCOC(=O)CNC(=O)C(C)NC(=O)C(NC(=O)CC(c1ncc[nH]1)c1ncc[nH]1)C(C)CC` (stereo not given), the TGI with UACC-62 melanoma, in the assay with HOP-92 NSCLC, in the assay on EKVX NSCLC, with M14 melanoma, with SK-MEL-28 melanoma and with MDA-N was above 100 µM throughout. In addition, the TGI in the assay on SNB-75 CNS, in the assay on MALME-3M melanoma, with SF-539 CNS and in the assay on IGROV1 ovarian was above 100 µM in each case.

On to `COC(OC)C1OC(CO)C(n2ccc(N)nc2=O)C1O` (stereo not given), for which the TGI in the assay on UACC-62 melanoma, with HOP-92 NSCLC, in the assay on EKVX NSCLC, with M14 melanoma, in the assay on SK-MEL-28 melanoma and in the assay on MDA-N was above 100 µM each time. The TGI in the assay with SNB-75 CNS, with MALME-3M melanoma, with SF-539 CNS and in the assay on IGROV1 ovarian was above 100 µM throughout.

Consider `C=C(C)C(=O)[C@@]12C(=O)[C@@H](C)CC[C@H]1[C@H](C)C[C@@H]2C=C(C)C`, for which the TGI in the assay on UACC-62 melanoma is above 100 µM; in the assay on HOP-92 NSCLC it was above 100 µM; in the assay on EKVX NSCLC, 93.1 µM; in the assay on M14 melanoma, above 100 µM; with SK-MEL-28 melanoma, above 100 µM; with MDA-N it was 59.1 µM. Further, the TGI in the assay on SNB-75 CNS was above 100 µM; with MALME-3M melanoma it was 40.6 µM; with SF-539 CNS, 47.4 µM; in the assay on IGROV1 ovarian it was 64.5 µM.

For the molecule `CN(NC(=O)CCCl)C1=NCCCCN1`, the TGI in the assay on UACC-62 melanoma, in the assay on HOP-92 NSCLC, in the assay with EKVX NSCLC, in the assay on M14 melanoma, in the assay with SK-MEL-28 melanoma and with MDA-N was above 100 µM each time. Besides, the TGI in the assay with SNB-75 CNS, in the assay on MALME-3M melanoma, in the assay with SF-539 CNS and in the assay on IGROV1 ovarian was above 100 µM each time.
